Article PMC8624485, “Modeling, Synthesis, and Biological Evaluation of Potential Retinoid-X-Receptor (RXR) Selective Agonists: Analogs of 4-[1-(3,5,5,8,8-Pentamethyl-5,6,7,8-tetrahyro-2-naphthyl)ethynyl]benzoic Acid (Bexarotene) and 6-(Ethyl(4-isobutoxy-3-isopropylphenyl)amino)nicotinic Acid (NEt-4IB)” (International Journal of Molecular Sciences, 2021)

Columns and labels:
Format in all cases: cell-based
human RARα = target: T1, human RARα (Homo sapiens, UniProt P10276); experiment: RARE-luciferase reporter assay in HEK293 cells; conditions: HEK293, all-trans-RA set to 100%
T1 construct: expressed in transfected cells; host or cells: HEK293 cells
T1 sequence (P10276 1-462): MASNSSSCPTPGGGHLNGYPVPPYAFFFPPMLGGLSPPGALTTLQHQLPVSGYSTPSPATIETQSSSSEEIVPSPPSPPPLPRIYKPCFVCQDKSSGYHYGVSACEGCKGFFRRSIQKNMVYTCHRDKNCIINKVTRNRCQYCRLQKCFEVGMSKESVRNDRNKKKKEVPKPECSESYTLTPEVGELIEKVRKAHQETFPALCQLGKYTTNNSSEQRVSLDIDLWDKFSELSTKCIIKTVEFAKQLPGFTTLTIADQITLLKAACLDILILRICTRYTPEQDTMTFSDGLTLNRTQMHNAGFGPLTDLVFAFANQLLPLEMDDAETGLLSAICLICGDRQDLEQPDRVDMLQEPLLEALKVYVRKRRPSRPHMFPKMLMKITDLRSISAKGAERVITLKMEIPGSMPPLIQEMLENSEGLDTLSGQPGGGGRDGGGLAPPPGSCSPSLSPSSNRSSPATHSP
Experimental: Human embryonic kidney cells (HEK293) were plated at 60,000 cells per well in a 24-well plate and maintained as described above. After 24 h, the cells were transfected with 250 ng pTK-DR5(X2)-Luc, 25 ng pCMX-human RARα, and 20 ng renilla utilizing 1.25 µL polyethylenimine (PEI) per well for 24 h. The sequence of the double DR5 RARE is: 5′-[…]-3′ (DR5 responsive elements underlined). The cells were treated with ethanol vehicle (0.1%), all-trans-retinoic acid (RA, the ligand for RAR), or the indicated rexinoid at a final concentration of 10 nM. After 24 h of treatment, the retinoid activity was measured as described above (dual luciferase assay). […] Three independent assays were conducted with triplicate samples for each treatment group. The value for RA was set to 100%. […]

[1] = target: T2, RXR-LXR heterodimer (LXR/LXRE) (Homo sapiens, UniProt P19793); experiment: LXRE-luciferase transactivation assay in HEK293 cells; conditions: 100 nM compound alone, HEK293, bexarotene (1) set to 100%
T2 construct: expressed in transfected cells; host or cells: HEK293 cells
T2 sequence (P19793 1-462): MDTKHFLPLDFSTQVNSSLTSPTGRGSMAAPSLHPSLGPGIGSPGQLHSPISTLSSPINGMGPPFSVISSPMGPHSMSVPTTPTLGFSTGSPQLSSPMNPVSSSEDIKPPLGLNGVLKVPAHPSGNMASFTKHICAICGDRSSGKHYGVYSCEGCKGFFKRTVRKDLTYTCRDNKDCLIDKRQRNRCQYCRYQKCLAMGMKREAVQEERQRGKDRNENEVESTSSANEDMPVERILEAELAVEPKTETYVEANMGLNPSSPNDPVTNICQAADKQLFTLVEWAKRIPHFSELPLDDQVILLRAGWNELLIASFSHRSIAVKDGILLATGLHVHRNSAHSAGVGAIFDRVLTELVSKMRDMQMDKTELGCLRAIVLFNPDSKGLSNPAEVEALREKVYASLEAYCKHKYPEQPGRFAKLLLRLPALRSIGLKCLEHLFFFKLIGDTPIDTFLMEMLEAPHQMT
T2 sequence (Q13133 1-447 partner): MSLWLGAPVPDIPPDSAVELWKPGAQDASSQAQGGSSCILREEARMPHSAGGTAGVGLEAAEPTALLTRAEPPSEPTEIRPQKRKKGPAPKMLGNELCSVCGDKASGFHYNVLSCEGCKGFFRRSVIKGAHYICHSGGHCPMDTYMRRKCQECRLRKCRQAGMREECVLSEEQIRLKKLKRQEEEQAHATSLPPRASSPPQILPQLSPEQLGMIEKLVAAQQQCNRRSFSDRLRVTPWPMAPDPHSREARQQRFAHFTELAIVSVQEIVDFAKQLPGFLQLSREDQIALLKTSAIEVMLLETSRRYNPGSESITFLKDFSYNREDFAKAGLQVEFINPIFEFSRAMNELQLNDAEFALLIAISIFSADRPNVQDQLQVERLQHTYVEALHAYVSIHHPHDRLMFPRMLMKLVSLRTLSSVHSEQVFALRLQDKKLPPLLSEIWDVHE
Experimental: The activation from this natural LXRE in our system was tested in the presence of either 100 nM RXR agonists alone or in combination with 100 nM of both the RXR agonist and LXR agonist T0901317 (TO). […] The LXRE-mediated assays were performed using human embryonic cells (HEK293) seeded at a density of 60,000 cells/well in a 24-well plate and maintained in DMEM (Hyclone) supplemented with 10% fetal bovine serum, 100 µg/mL streptomycin, 100 U/mL penicillin (Invitrogen, Carlsbad, CA, USA) at 37 degrees Celsius, 5% CO2 for 24 h. The cells were co-transfected with 250 ng of an LXRE-luciferase reporter gene, 50 ng of pSG5-human RXRα, and 20 ng of renilla control plasmid. […] After 24 h post treatment, the cells were lysed and the transcriptional activity mediated by the LXRE was measured using the Dual Luciferase Assay System (Promega, Madison, WI) in a Sirius FB12 luminometer (Berthold Detection Systems, Pforzheim, Germany) according to the manufacturer’s protocol. The data are a compilation of between three and six independent assays with each treatment group dosed in triplicate for each independent assay. […] Bars on all graphs indicate standard deviation of the replicate experiments.
Cells were transfected for 24 h utilizing a liposome-mediated transfection protocol and then treated with the ethanol vehicle, or 100 nM of the indicated compound alone or in combination with 100 nM TO901317 (TO). […] (A) Human HEK-293 cells were transfected and treated as described in Figure 8.

Saccharomyces cerevisiae = Saccharomyces cerevisiae toxicity assay; conditions: 3 h incubation, colony count vs DMSO only control; highest concentration tested 11 µg/µL
Experimental: These compounds were also assessed for mutagenicity and toxicity in Saccharomyces cerevisiae and the toxicity results are summarized in Table 1. No compound was mutagenic in this assay.
All compounds were tested for toxicity and mutagenicity using a Saccharomyces cerevisiae based assay as described previously. Toxicity was assessed in this assay (Table 1), comparing growth on plates to control treatments. Compounds were solubilized in DMSO at increasing concentrations and cells were incubated with the compounds for 3 h before plating on selective media or YPD to assess toxicity and mutagenicity. Cytotoxicity was assessed as described. Growth of colonies on the full nutrient YPD plate for each treatment was compared to the DMSO only control. The concentration at which 50% cell death (as indicated by colony count compared to DMSO only control) +/−10% cell death is reported as the 50% killing rate. The highest concentration tested was 11 µg/µL.

RXRα = target: T3, RXRα (Homo sapiens, UniProt P19793); experiment: UAS/Gal4 GFP reporter assay of RXRα activation in UAS-GFP x KMT2A-MLLT3 cells; conditions: RXRα activation; value (SD); Table 1 does not say whether GFP or Luc assay; read-out: EC50 (nM) +/−(SD)
T3 construct: expressed in transfected cells; host or cells: UAS-GFP x KMT2A-MLLT3 cells (retroviral transduction)
T3 sequence (P19793 227-458 limits assumed): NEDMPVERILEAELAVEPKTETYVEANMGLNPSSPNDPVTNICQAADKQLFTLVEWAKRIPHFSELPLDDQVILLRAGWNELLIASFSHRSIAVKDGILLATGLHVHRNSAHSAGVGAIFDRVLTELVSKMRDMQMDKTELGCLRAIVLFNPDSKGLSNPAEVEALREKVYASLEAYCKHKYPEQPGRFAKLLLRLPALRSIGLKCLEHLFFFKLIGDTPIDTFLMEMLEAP
Experimental: Cells were treated, and after 48 h, GFP measured by a ZE5 Flow Cytometer (Biorad).

RXRA = target: T4, RXRA (Homo sapiens, UniProt P19793); experiment: ApoA1-Luc luciferase assay in 293T cells with pBABE-RXRA; conditions: pBABE-RXRA and ApoA1-Luc, nonconverged, read-out: EC50 (nM), luciferase (Figure 7C)
T4 construct: expressed in transfected cells; host or cells: 293T cells
T4 sequence (P19793 1-462): T2 sequence (P19793 1-462)
Experimental: 293T cells were transfected using Lipofectamine 2000 (Invitrogen). Six hours after transfection, the cells were collected and plated into a 48-well plate in 1% BSA media in triplicate and treated with compounds. After 40 h incubation, the cells were harvested and assayed for luciferase (Luc Assay System with Reporter Lysis Buffer, Promega) in a Beckman Coulter LD400 plate reader.

SMILES | RARE Activity (%RA at 10 nM) (human RARα) | LXRE Activity (% of Bex) [1] | Cyto-Toxicity (50% Cell Death) (Saccharomyces cerevisiae) | EC50 (RXRα) | EC50 (RXRA)
CCN(c1ccc(C(=O)O)c(F)c1)c1ccc(OCC(C)C)c(C(C)C)c1 [Compound 29, 4-(ethyl(4-isobutoxy-3-isopropylphenyl)amino)-2-fluorobenzoic acid] | 4.0 %RA | 61.7 % of Bex | 1 µg/µL | > 1000 nM | > 1000 nM
CC(C)COc1ccc(-n2nnc3cc(C(=O)O)ccc32)cc1C(C)C [Compound 31, 1-(4-isobutoxy-3-isopropylphenyl)-1H-benzo[d][1,2,3]triazole-5-carboxylic acid] | 3.1 %RA | 64.5 % of Bex | none | > 1000 nM | > 1000 nM
